Measurements reported in patent US10219513B2, “Safening 4-amino-3-chloro-6-(4-chloro-2-fluoro-3-methoxyphenyl)-5-fluoropyridine-2-carboxylic acid compositions in Brassica species and methods of use thereof” (Dow AgroSciences LLC, priority 2016, dated 2019).
“And” between values parts separate entries of the source, which are not always exact repeats. Equal entries are not always repeated.

Key:
[1] = tested on: Brassica napus (all varieties of canola and oilseed rape, BRSNN); experiment: Greenhouse postemergence application, visual injury after 20-22 d, BRSNN; details: for Obs % visual injury: BRSNN
Protocol: (§1) Seeds of the desired test plant species were planted in Sun Gro MetroMix® 306 planting mixture, which typically has a pH of 6.0 to 6.8 and an organic matter content of about 30 percent, in plastic pots with a surface area of 103.2 square centimeters (cm^2). […] The plants were grown for 7-36 days (d) in a greenhouse with an approximate 14-hour (h) photoperiod which was maintained at about 23° C. during the day and 22° C. during the night. Nutrients and water were added on a regular basis and supplemental lighting was provided with overhead metal halide 1000-Watt lamps as necessary. The plants were employed for testing when they reached the second or third true leaf stage.
(§2) An aliquot of formulated benzyl 4-amino-3-chloro-6-(4-chloro-2-fluoro-3-methoxyphenyl)-5-fluoropyridine-2-carboxylate (florpyrauxifen-benzyl; 300 grams active ingredient per liter (g ai/L) suspension concentrate (SC)) was placed in a 25 mL glass vial and diluted in a volume of 1.25% (v/v) aqueous Agri-dex crop oil concentrated to obtain a stock solution. […] The concentrated stock solutions were diluted with an aqueous mixture of 1.25% v/v of aqueous Agri-dex crop oil concentrate to provide the appropriate application rates. Compound requirements are based upon a 12 milliliter (mL) application volume at a rate of 187 liters per hectare (L/ha). Stock solutions of the formulated materials were prepared following the same procedure. Spray solutions of the compound mixtures were prepared by adding the stock solutions to the appropriate amount of dilution solution to form a 12 mL spray solution. Formulated compounds were applied to the plant material with an overhead Mandel track sprayer equipped with 8002E nozzles calibrated to deliver 187 L/ha over an application area of 0.503 square meters (m^2) at a spray height of 18 inches (43 centimeters (cm)) above average plant canopy. Control plants were sprayed in the same manner with the solvent blank.
(§3) The treated plants and control plants were placed in a greenhouse as described above and watered by sub-irrigation to prevent wash-off of the test compounds. After 20-22 d, the condition of the test plants as compared with that of the control plants was determined visually and scored on a scale of 0 to 100 percent where 0 corresponds to no injury and 100 corresponds to complete kill. Colby's equation was used to determine the herbicidal effects expected from the mixtures.
(§4) Benzyl 4-amino-3-chloro-6-(4-chloro-2-fluoro-3-methoxyphenyl)-5-fluoropyridine-2-carboxylate (florpyrauxifen-benzyl, 300 g ai/L SC) was combined in two-, three-, and four-way mixtures with one or more of the following: clopyralid-olamine (as Lontrel™ 35A Herbicidal Concentrate), quinclorac (as Facet 75DF), isoxadifen-ethyl (100 g/L SC), cloquintocet-mexyl (120 g/L EC) or mefenpyr-diethyl (as mefenpyr-diethyl 15WP). The mixtures were applied to kale/Chinese kale (Brassica alboglabra, BRSAG), Juncea canola or brown mustard (Brassica juncea, BRSJU), rutabaga (Brassica napus var. napobrassica, BRSNA), all varieties of canola and oilseed rape (Brassica napus, BRSNN), Nexera™ canola (Brassica napus, BRSNN-NEX), winter oilseed rape (Brassica napus, BRSNW), Roundup Ready® canola (Brassica napus, RR-BRSNN), and turnip or Polish canola (Brassica rapa, BRSRR), and the phytotoxicity of the compositions was measured.
(§5) Colby's equation was used to determine the herbicidal effects expected from the mixtures evaluated in the described trials (Colby, S. R. Calculation of the synergistic and antagonistic response of herbicide combinations. Weeds 1967, 15, 20-22.).
(§6) The following equation was used to calculate the expected activity of mixtures containing two active ingredients, A and B: Expected=A+B−(A×B/100) • A=observed efficacy of active ingredient A at the same concentration as used in the mixture; • B=observed efficacy of active ingredient B at the same concentration as used in the mixture.

[2] = tested on: Brassica napus var. napobrassica (rutabaga, BRSNA); experiment: Greenhouse postemergence application, visual injury after 20-22 d, BRSNA; details: for Obs % visual injury: BRSNA
Protocol: as §1, §2, §3, §4, §5, §6

[3] = tested on: Brassica alboglabra (kale/Chinese kale, BRSAG); experiment: Greenhouse postemergence application, visual injury after 20-22 d, BRSAG; details: for Obs % visual injury: BRSAG
Protocol: as §1, §2, §3, §4, §5, §6

[4] = tested on: Brassica napus (Nexera canola, BRSNN-NEX); experiment: Greenhouse postemergence application, visual injury after 20-22 d, BRSNN-NEX; details: for Obs % visual injury: BRSNN-NEX
Protocol: as §1, §2, §3, §4, §5, §6

[5] = tested on: Brassica napus (Roundup Ready canola, RR-BRSNN); experiment: Greenhouse postemergence application, visual injury after 20-22 d, RR-BRSNN; details: for Obs % visual injury: RR-BRSNN
Protocol: as §1, §2, §3, §4, §5, §6

[6] = tested on: Brassica rapa (turnip or Polish canola, BRSRR); experiment: Greenhouse postemergence application, visual injury after 20-22 d, BRSRR; details: for Obs % visual injury: BRSRR
Protocol: as §1, §2, §3, §4, §5, §6

[7] = tested on: Brassica juncea (Juncea canola or brown mustard, BRSJU); experiment: Greenhouse postemergence application, visual injury after 20-22 d, BRSJU; details: for Obs % visual injury: BRSJU
Protocol: as §1, §2, §3, §4, §5, §6

[8] = tested on: Brassica napus (winter oilseed rape, BRSNW); experiment: Greenhouse postemergence application, visual injury after 20-22 d, BRSNW; details: for Obs % visual injury: BRSNW
Protocol: as §1, §2, §3, §4, §5, §6

[9] = clopyralid-olamine 50 g ai/ha alone
[10] = clopyralid-olamine 100 g ai/ha alone
[11] = clopyralid-olamine 200 g ai/ha alone
[12] = postemergence application, greenhouse, application rate (g ai/ha) varies

SMILES: CCOC(=O)C1=NN(c2ccc(Cl)cc2Cl)C(C)(C(=O)OCC)C1 (racemic) [Mefenpyr-diethyl, diethyl (RS)-1-(2,4-dichlorophenyl)-5-methyl-2-pyrazoline-3,5-dicarboxylate]
- Obs % visual injury BRSNN ([1]; safener alone 5 g ai/ha): 0%
- Obs % visual injury BRSNN ([1]; safener alone 10 g ai/ha): 0%
- Obs % visual injury BRSNN ([1]; safener alone 20 g ai/ha): 0%
- Obs % visual injury BRSNN ([1]; safener alone 40 g ai/ha): 0%
- Obs % visual injury BRSNA ([2]; safener alone 5 g ai/ha): 0%
- Obs % visual injury BRSNA ([2]; safener alone 10 g ai/ha): 0%
- Obs % visual injury BRSNA ([2]; safener alone 20 g ai/ha): 0%
- Obs % visual injury BRSNA ([2]; safener alone 40 g ai/ha): 0%
- Obs % visual injury BRSAG ([3]; safener alone 5 g ai/ha): 0%
- Obs % visual injury BRSAG ([3]; safener alone 10 g ai/ha): 0%
- Obs % visual injury BRSAG ([3]; safener alone 20 g ai/ha): 0%
- Obs % visual injury BRSAG ([3]; safener alone 40 g ai/ha): 0%
- Obs % visual injury BRSNN-NEX ([4]; safener alone 5 g ai/ha): 0%
- Obs % visual injury BRSNN-NEX ([4]; safener alone 10 g ai/ha): 0%
- Obs % visual injury BRSNN-NEX ([4]; safener alone 20 g ai/ha): 0%
- Obs % visual injury BRSNN-NEX ([4]; safener alone 40 g ai/ha): 0%
- Obs % visual injury RR-BRSNN ([5]; safener alone 5 g ai/ha): 0%
- Obs % visual injury RR-BRSNN ([5]; safener alone 10 g ai/ha): 0%
- Obs % visual injury RR-BRSNN ([5]; safener alone 20 g ai/ha): 0%
- Obs % visual injury RR-BRSNN ([5]; safener alone 40 g ai/ha): 0%
- Obs % visual injury BRSRR ([6]; safener alone 5 g ai/ha): 0%
- Obs % visual injury BRSRR ([6]; safener alone 10 g ai/ha): 0%
- Obs % visual injury BRSRR ([6]; safener alone 20 g ai/ha): 0%
- Obs % visual injury BRSRR ([6]; safener alone 40 g ai/ha): 0%
- Obs % visual injury BRSJU ([7]; safener alone 5 g ai/ha): 0%
- Obs % visual injury BRSJU ([7]; safener alone 10 g ai/ha): 0%
- Obs % visual injury BRSJU ([7]; safener alone 20 g ai/ha): 0%
- Obs % visual injury BRSJU ([7]; safener alone 40 g ai/ha): 0%
- Obs % visual injury BRSNW ([8]; safener alone 5 g ai/ha): 0%
- Obs % visual injury BRSNW ([8]; safener alone 10 g ai/ha): 0%
- Obs % visual injury BRSNW ([8]; safener alone 20 g ai/ha): 0%
- Obs % visual injury BRSNW ([8]; safener alone 40 g ai/ha): 0%

SMILES: O=C(O)c1nc(Cl)ccc1Cl [Clopyralid-olamine, 2-hydroxyethanaminium 3,6-dichloro-2-pyridinecarboxylate]
- Obs % visual injury ([1]; partner alone 50 g ai/ha): 2%
- Obs % visual injury ([1]; partner alone 100 g ai/ha): 0%
- Obs % visual injury ([1]; partner alone 200 g ai/ha): 0%
- % Visual Injury BRSNN Obs [1, 9]: 2%
- % Visual Injury Obs [1, 9]: 2%
- % Visual Injury BRSNN Obs [1, 10]: 0%
- % Visual Injury Obs [1, 10]: 0%
- % Visual Injury BRSNN Obs [1, 11]: 0%
- % Visual Injury Obs [1, 11]: 0%
- % Visual Injury BRSNN Obs [1, 12]: 2% and 0%
- Obs % visual injury ([2]; partner alone 50 g ai/ha): 0%
- Obs % visual injury ([2]; partner alone 100 g ai/ha): 0%
- Obs % visual injury ([2]; partner alone 200 g ai/ha): 0%
- % Visual Injury BRSNA Obs [2, 9]: 0%
- % Visual Injury Obs [2, 9]: 0%
- % Visual Injury BRSNA Obs [2, 10]: 0%
- % Visual Injury Obs [2, 10]: 0%
- % Visual Injury BRSNA Obs [2, 11]: 0%
- % Visual Injury Obs [2, 11]: 0%
- % Visual Injury BRSNA Obs [2, 12]: 0%
- Obs % visual injury ([3]; partner alone 50 g ai/ha): 0%
- Obs % visual injury ([3]; partner alone 100 g ai/ha): 0%
- Obs % visual injury ([3]; partner alone 200 g ai/ha): 0%
- % Visual Injury BRSAG Obs [3, 9]: 0%
- % Visual Injury Obs [3, 9]: 0%
- % Visual Injury BRSAG Obs [3, 10]: 0%
- % Visual Injury Obs [3, 10]: 0%
- % Visual Injury BRSAG Obs [3, 11]: 0%
- % Visual Injury Obs [3, 11]: 0%
- % Visual Injury BRSAG Obs [3, 12]: 0%
- Obs % visual injury ([4]; partner alone 50 g ai/ha): 0%
- Obs % visual injury ([4]; partner alone 100 g ai/ha): 0%
- Obs % visual injury ([4]; partner alone 200 g ai/ha): 0%
- % Visual Injury BRSNN-NEX Obs [4, 9]: 0%
- % Visual Injury Obs [4, 9]: 0%
- % Visual Injury BRSNN-NEX Obs [4, 10]: 0%
- % Visual Injury Obs [4, 10]: 0%
- % Visual Injury BRSNN-NEX Obs [4, 11]: 0%
- % Visual Injury Obs [4, 11]: 0%
- % Visual Injury BRSNN-NEX Obs [4, 12]: 0%
- Obs % visual injury ([5]; partner alone 50 g ai/ha): 0%
- Obs % visual injury ([5]; partner alone 100 g ai/ha): 0%
- Obs % visual injury ([5]; partner alone 200 g ai/ha): 0%
- % Visual Injury Obs [5, 9]: 0%
- % Visual Injury RR-BRSNN Obs [5, 9]: 0%
- % Visual Injury Obs [5, 10]: 0%
- % Visual Injury RR-BRSNN Obs [5, 10]: 0%
- % Visual Injury Obs [5, 11]: 0%
- % Visual Injury RR-BRSNN Obs [5, 11]: 0%
- % Visual Injury RR-BRSNN Obs [5, 12]: 0%
- Obs % visual injury ([6]; partner alone 50 g ai/ha): 0%
- Obs % visual injury ([6]; partner alone 100 g ai/ha): 0%
- Obs % visual injury ([6]; partner alone 200 g ai/ha): 0%
- % Visual Injury BRSRR Obs [6, 9]: 0%
- % Visual Injury Obs [6, 9]: 0%
- % Visual Injury BRSRR Obs [6, 10]: 0%
- % Visual Injury Obs [6, 10]: 0%
- % Visual Injury BRSRR Obs [6, 11]: 0%
- % Visual Injury Obs [6, 11]: 0%
- % Visual Injury BRSRR Obs [6, 12]: 0%
- Obs % visual injury ([7]; partner alone 50 g ai/ha): 0%
- Obs % visual injury ([7]; partner alone 100 g ai/ha): 0%
- Obs % visual injury ([7]; partner alone 200 g ai/ha): 0%
- % Visual Injury BRSJU Obs [7, 9]: 0%
- % Visual Injury Obs [7, 9]: 0%
- % Visual Injury BRSJU Obs [7, 10]: 0%
- % Visual Injury Obs [7, 10]: 0%
- % Visual Injury BRSJU Obs [7, 11]: 0%
- % Visual Injury Obs [7, 11]: 0%
- % Visual Injury BRSJU Obs [7, 12]: 0%
- Obs % visual injury ([8]; partner alone 50 g ai/ha): 0%
- Obs % visual injury ([8]; partner alone 100 g ai/ha): 0%
- Obs % visual injury ([8]; partner alone 200 g ai/ha): 0%
- % Visual Injury BRSNW Obs [8, 9]: 0%
- % Visual Injury Obs [8, 9]: 0%
- % Visual Injury BRSNW Obs [8, 10]: 0%
- % Visual Injury Obs [8, 10]: 0%
- % Visual Injury BRSNW Obs [8, 11]: 0%
- % Visual Injury Obs [8, 11]: 0%
- % Visual Injury BRSNW Obs [8, 12]: 0%
